Measured values published in US20250171462A1 (NICO Therapeutics, Inc., priority 2022, published 2025).
Read-outs that look alike come from different tables or passages of the source.

Target: T1, full-length SARM1 (FL-SARM1) (Homo sapiens, UniProt Q6SZW1)
T1 sequence (Q6SZW1 28-724): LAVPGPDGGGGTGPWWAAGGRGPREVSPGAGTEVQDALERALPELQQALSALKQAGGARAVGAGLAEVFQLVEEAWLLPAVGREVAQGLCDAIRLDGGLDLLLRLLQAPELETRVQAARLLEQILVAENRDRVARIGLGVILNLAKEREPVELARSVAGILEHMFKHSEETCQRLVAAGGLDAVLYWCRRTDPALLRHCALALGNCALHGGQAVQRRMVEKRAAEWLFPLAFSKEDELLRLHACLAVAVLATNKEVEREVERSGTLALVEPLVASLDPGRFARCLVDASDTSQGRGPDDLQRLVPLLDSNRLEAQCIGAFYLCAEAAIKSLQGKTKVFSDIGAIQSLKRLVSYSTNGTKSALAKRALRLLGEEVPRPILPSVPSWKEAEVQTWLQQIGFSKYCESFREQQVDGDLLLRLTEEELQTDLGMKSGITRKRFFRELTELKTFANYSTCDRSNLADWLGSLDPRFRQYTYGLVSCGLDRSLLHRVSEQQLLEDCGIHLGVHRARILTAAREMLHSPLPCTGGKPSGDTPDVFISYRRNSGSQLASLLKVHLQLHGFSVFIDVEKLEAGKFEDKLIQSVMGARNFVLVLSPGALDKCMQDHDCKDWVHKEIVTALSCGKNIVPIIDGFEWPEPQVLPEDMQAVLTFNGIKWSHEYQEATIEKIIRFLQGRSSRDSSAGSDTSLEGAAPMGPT
Experiment: FL-SARM1 cellular lysate assay (NAD/NADH-Glo detection of remaining NAD+, NMN-activated)

[1] = Activity (IC50 class), 11 point curve
[2] = Activity (μM) (IC50), 11 point curve
[3] = read-out: Activity (IC50 class), 11 point curve

Compound	IC50 [1] [µM]	IC50 [2] [µM]	IC50 [3] [µM]
Cc1ccc(NC(=O)[C@@H]2[C@@H]3CC[C@H]2N(CC(F)(F)F)C3)cc1-c1ccccn1 (single isomer, unassigned) [Example 105, trans-N-(4-methyl-3-(pyridin-2-yl)phenyl)-2-(2,2,2-trifluoroethyl)-2-azabicyclo[2.2.1]heptane-7-carboxamide]	> 10	17	
CC[C@H]1C[C@@H]1C(=O)Nc1ccc(C)c(-c2ccccn2)c1 (single isomer, unassigned) [Example 107, trans-2-ethyl-N-(4-methyl-3-pyridin-2-ylphenyl)cyclopropane-1-carboxamide]	> 10	18	
CC[C@H]1C[C@H]1C(=O)Nc1ccc(C)c(-c2ccccn2)c1 (single isomer, unassigned) [Example 109, cis-2-ethyl-N-(4-methyl-3-pyridin-2-ylphenyl)cyclopropane-1-carboxamide]		0.3	0.0001 to 1
CC[C@H]1C[C@H]1C(=O)Nc1ccc(C)c(-c2ccccn2)c1 (single isomer, unassigned) [Example 110, cis-2-ethyl-N-(4-methyl-3-pyridin-2-ylphenyl)cyclopropane-1-carboxamide]	1 to 10	6	
Cc1ccc(NC(=O)[C@H]2C[C@H](C3CC3)C2)cc1-c1ccccn1 (single isomer, unassigned) [Example 121, trans-3-cyclopropyl-N-(4-methyl-3-pyridin-2-ylphenyl)cyclobutane-1-carboxamide]		0.9	0.0001 to 1
Cc1ccc(NC(=O)[C@H]2C[C@@H](C3CC3)C2)cc1-c1ccccn1 (single isomer, unassigned) [Example 122, cis-3-cyclopropyl-N-(4-methyl-3-pyridin-2-ylphenyl)cyclobutane-1-carboxamide]		0.3	0.0001 to 1
Cc1ccc(NC(=O)C2CC3CC[C@H]2C3)cc1-c1ccccn1 (single isomer, unassigned) [Example 137, trans-N-(4-methyl-3-pyridin-2-ylphenyl)bicyclo[2.2.1]heptane-2-carboxamide]		0.1	0.0001 to 1
Cc1ccc(NC(=O)[C@@H]2C[C@H]3CC[C@@H]2C3)cc1-c1ccccn1 (single isomer, unassigned) [Example 138, cis-N-(4-methyl-3-pyridin-2-ylphenyl)bicyclo[2.2.1]heptane-2-carboxamide]		0.7	0.0001 to 1
Cc1ccc(NC(=O)C2CC3CC[C@H]2C3)cc1-c1ccccn1 (single isomer, unassigned) [Example 139, cis-N-(4-methyl-3-pyridin-2-ylphenyl)bicyclo[2.2.1]heptane-2-carboxamide]		0.2	0.0001 to 1
Cc1ccc(NC(=O)C2CC3CC[C@@H]2C3)cc1-c1ccccn1 (single isomer, unassigned) [Example 140]		0.9	0.0001 to 1
CCOC(C)[C@@]12CC(C[C@@H](C)C1)N2C(=O)Nc1ccc(C)c(-c2ncc(F)cn2)c1 (single isomer, unassigned) [Example 186]		0.2	0.0001 to 1
CCOC(C)[C@@]12CC(C[C@@H](C)C1)N2C(=O)Nc1ccc(C)c(-c2ncc(F)cn2)c1 (single isomer, unassigned) [Example 187, cis-1-(1-ethoxyethyl)-N-(3-(5-fluoropyrimidin-2-yl)-4-methylphenyl)-3-methyl-6-azabicyclo[3.1.1]heptane-6-carboxamide]		0.2	0.0001 to 1
CCOC(C)[C@@]12CC(C[C@@H](C)C1)N2C(=O)Nc1ccc(C)c(-c2ncc(F)cn2)c1 (single isomer, unassigned) [Example 188, cis-1-(1-ethoxyethyl)-N-(3-(5-fluoropyrimidin-2-yl)-4-methylphenyl)-3-methyl-6-azabicyclo[3.1.1]heptane-6-carboxamide]		0.003	0.0001 to 1
CCOC(C)[C@@]12CC(C[C@@H](C)C1)N2C(=O)Nc1ccc(C)c(-c2ncc(F)cn2)c1 (single isomer, unassigned) [Example 189, cis-1-(1-ethoxyethyl)-N-(3-(5-fluoropyrimidin-2-yl)-4-methylphenyl)-3-methyl-6-azabicyclo[3.1.1]heptane-6-carboxamide]	1 to 10	1.9	
COC(C)[C@@]12CC(C[C@@H](C)C1)N2C(=O)Nc1ccc(C)c(-c2ncc(F)cn2)c1 (single isomer, unassigned) [Example 191, cis-N-(3-(5-fluoropyrimidin-2-yl)-4-methylphenyl)-1-(1-methoxyethyl)-3-methyl-6-azabicyclo[3.1.1]heptane-6-carboxamide]		0.0009	0.0001 to 1
COC(C)[C@@]12CC(C[C@@H](C)C1)N2C(=O)Nc1ccc(C)c(-c2ncc(F)cn2)c1 (single isomer, unassigned) [Example 192, cis-N-(3-(5-fluoropyrimidin-2-yl)-4-methylphenyl)-1-(−1-methoxyethyl)-3-methyl-6-azabicyclo[3.1.1]heptane-6-carboxamide]	1 to 10	1	
Cc1ccc(NC(=O)N2C3CC(C)CC2(C(C)O)C3)cc1-c1ncc(F)cn1 (single isomer, unassigned) [Example 193, cis-N-(3-(5-fluoropyrimidin-2-yl)-4-methylphenyl)-1-(1-hydroxyethyl)-3-methyl-6-azabicyclo[3.1.1]heptane-6-carboxamide]		0.1	0.0001 to 1
Cc1ccc(NC(=O)N2C3CC(C)CC2(C(C)O)C3)cc1-c1ncc(F)cn1 (single isomer, unassigned) [Example 194, cis-N-(3-(5-fluoropyrimidin-2-yl)-4-methylphenyl)-1-(1-hydroxyethyl)-3-methyl-6-azabicyclo[3.1.1]heptane-6-carboxamide]		0.01	0.0001 to 1
Cc1ccc(NC(=O)N2C3CCC2[C@@H](C)C3)cc1-c1ncc(F)cn1 (single isomer, unassigned) [Example 195, cis-N-(3-(5-fluoropyrimidin-2-yl)-4-methylphenyl)-2-methyl-7-azabicyclo[2.2.1]heptane-7-carboxamide]		0.3	0.0001 to 1
Cc1ccc(NC(=O)N2C3CCC2[C@@H](C)C3)cc1-c1ncc(F)cn1 (single isomer, unassigned) [Example 196, cis-N-(3-(5-fluoropyrimidin-2-yl)-4-methylphenyl)-2-methyl-7-azabicyclo[2.2.1]heptane-7-carboxamide]		0.8	0.0001 to 1
Cc1ccc(NC(=O)N2C3CCC2[C@H](C)C3)cc1-c1ncc(F)cn1 (single isomer, unassigned) [Example 197, trans-N-[3-(5-fluoropyrimidin-2-yl)-4-methylphenyl]-2-methyl-7-azabicyclo[2.2.1]heptane-7-carboxamide]		0.4	0.0001 to 1
Cc1ccc(NC(=O)N2C3CCC2[C@H](C)C3)cc1-c1ncc(F)cn1 (single isomer, unassigned) [Example 198, trans-N-[3-(5-fluoropyrimidin-2-yl)-4-methylphenyl]-2-methyl-7-azabicyclo[2.2.1]heptane-7-carboxamide]		0.3	0.0001 to 1
